Assays:
Format in all cases: in vivo
[1] = system: Matricaria inodora (MATIN); assay: Herbicidal pre-emergence action, 1280 g/ha (Table A6); conditions: visual grading after ca. 3 weeks vs untreated controls
In short: (§1)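 Percent herbicidal damage relative to untreated plants (0% = as control, 100% = plants dead) was graded visually about 3 weeks after treatment under greenhouse conditions. The pre-emergence application went onto the soil surface over sown seeds, as aqueous WP/EC suspension or emulsion at 600 L/ha plus 0.5% additive.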

Setaria viridis (SETVI) [2] = assay: Herbicidal post-emergence action, 1280 g/ha (Table B8); conditions: visual assessment after ca. 3 weeks vs untreated controls
Excerpt: (§2) Seeds of mono- and dicotyledonous weed plants were sown in plastic pots (double sowings with one species of mono- and one species of dicotyledonous weed plants per pot), in sandy loam, covered with soil and grown under controlled growth conditions. 2 to 3 weeks after sowing, the test plants were sprayed in the single-leaf stage. The compounds according to the invention, formulated in the form of wettable powders (WP) or as emulsifiable concentrates (EC), were sprayed onto the green plant parts as an aqueous suspension or as an emulsion, with the addition of 0.5% of an additive, at an application rate of 600 litres of water per hectare (converted). The test plants were placed in the greenhouse for ca. 3 weeks under optimum growth conditions, and then the effect of the preparations was assessed visually in comparison with untreated controls (herbicidal effect in percent (%): 100% effect=plants have died, 0% effect=as control plants). Tables B1 to B11 below, show the effects of selected compounds of the general formula (I) according to Table 1 on various harmful plants using an application rate corresponding to 1280 g/ha obtained by the experimental procedure mentioned above.

[3] = system: Abutilon theophrasti (ABUTH); assay: Herbicidal post-emergence action, 1280 g/ha (Table B1); conditions: visual assessment after ca. 3 weeks vs untreated controls
In short: (§3)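 Post-emergence greenhouse pot test: weeds in sandy loam sprayed at single-leaf stage, 2–3 weeks after sowing, with WP or EC formulations plus 0.5% additive at 600 L water/ha. Effect scored visually ca. 3 weeks later versus untreated controls, 0% = as control, 100% = plants dead.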

[4] = system: Matricaria inodora (MATIN); assay: Herbicidal post-emergence action, 1280 g/ha (Table B6); conditions: visual assessment after ca. 3 weeks vs untreated controls
In short: as §3

[5] = system: Amaranthus retroflexus (AMARE); assay: Herbicidal post-emergence action, 320 g/ha, AMARE; conditions: visual grading after ca. 3 weeks
In short: (§4)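 Visual herbicidal scoring (0% = like control, 100% = plants died) was done about 3 weeks after treatment, with plants kept in the greenhouse. Treatment was a 320 g/ha spray of WP or EC aqueous preparations with 0.5% additive, at a water volume of 600 L/ha. Plants were at the single-leaf stage, 2–3 weeks post-sowing in sandy loam.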

[6] = system: Abutilon theophrasti (ABUTH); assay: Herbicidal post-emergence action, 320 g/ha, ABUTH; conditions: visual grading after ca. 3 weeks
In short: as §4

Lolium rigidum (LOLRI) [7] = assay: Herbicidal post-emergence action, 1280 g/ha (Table B5); conditions: visual assessment after ca. 3 weeks vs untreated controls
Excerpt: as §2

Stellaria media (STEME) [8] = assay: Herbicidal post-emergence action, 1280 g/ha (Table B9); conditions: visual assessment after ca. 3 weeks vs untreated controls
In short: as §3

Kochia scoparia (KCHSC) [9] = assay: Herbicidal post-emergence action, 1280 g/ha (Table B4); conditions: visual assessment after ca. 3 weeks vs untreated controls
In short: as §3

Kochia scoparia (KCHSC) [10] = assay: Herbicidal post-emergence action, 320 g/ha, KCHSC; conditions: visual grading after ca. 3 weeks
Excerpt: as §2, with “plants).” for “plants). Tables B1 to B11 below, show the effects of selected compounds of the general formula (I) according to Table 1 on various harmful plants using an application rate corresponding to 1280 g/ha obtained by the experimental procedure mentioned above.”
(§5) Tables D1 to D8 below, show the effects of selected compounds of the general formula (I) according to Table 1 on various harmful plants using an application rate corresponding to 320 g/ha obtained by the experimental procedure mentioned above.

[11] = system: Amaranthus retroflexus (AMARE); assay: Herbicidal post-emergence action, 1280 g/ha, AMARE; conditions: visual grading vs untreated controls
In short: (§6)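 Pot-grown weeds in sandy loam sprayed post-emergence at the single-leaf stage, 2–3 weeks after sowing, with WP or EC formulations plus 0.5% additive in 600 L water/ha at 1280 g/ha. After ca. 3 weeks in the greenhouse, damage scored visually as % effect versus untreated controls (100% = plants dead).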

Stellaria media (STEME) [12] = assay: Herbicidal pre-emergence action, 1280 g/ha (Table A9); conditions: visual grading after ca. 3 weeks vs untreated controls
In short: as §1

Veronica persica (VERPE) [13] = assay: Herbicidal post-emergence action, 1280 g/ha, VERPE; conditions: visual grading vs untreated controls
In short: as §6

Lolium rigidum (LOLRI) [14] = assay: Herbicidal pre-emergence action, 1280 g/ha (Table A5); conditions: visual grading after ca. 3 weeks vs untreated controls
In short: as §1

Kochia scoparia (KCHSC) [15] = assay: Herbicidal pre-emergence action, 1280 g/ha (Table A4); conditions: visual grading after ca. 3 weeks vs untreated controls
In short: as §1

Stellaria media (STEME) [16] = assay: Herbicidal post-emergence action, 320 g/ha, STEME; conditions: visual grading after ca. 3 weeks
In short: as §4

[17] = system: Amaranthus retroflexus (AMARE); assay: Herbicidal pre-emergence action, 1280 g/ha (Table A11); conditions: visual grading after ca. 3 weeks vs untreated controls
In short: as §1

Lolium rigidum (LOLRI) [18] = assay: Herbicidal pre-emergence action, 320 g/ha (Table C2); conditions: visual grading after ca. 3 weeks vs untreated controls
Excerpt: (§7) Seeds of mono- and dicotyledonous weed plants were sown in plastic pots (double sowings with one species of mono- and one species of dicotyledonous weed plants per pot), in sandy loam, and covered with soil. The compounds according to the invention, formulated in the form of wettable powders (WP) or as emulsifiable concentrates (EC), were applied to the surface of the covering soil as an aqueous suspension or as an emulsion, with the addition of 0.5% of an additive, at an application rate of 600 litres of water per hectare (converted). Following treatment, the pots were placed in a greenhouse and kept under optimum growth conditions for the test plants. The visual grading of the damage to the test plants was carried out after ca. 3 weeks in comparison to untreated controls (herbicidal effect in percent (%): 100% effect=plants have died, 0% effect=as control plants). Tables C1 to C6 below, show the effects of selected compounds of the general formula (I) according to Table 1 on various harmful plants using an application rate corresponding to 320 g/ha obtained by the experimental procedure mentioned above.

[19] = system: Abutilon theophrasti (ABUTH); assay: Herbicidal pre-emergence action, 1280 g/ha (Table A1); conditions: visual grading after ca. 3 weeks vs untreated controls
Excerpt: as §7, with “A1” for “C1”, “A11” for “C6”, “and” for “using”, “1280” for “320”

[20] = system: Echinochloa crus-galli (ECHCG); assay: Herbicidal post-emergence action, 1280 g/ha (Table B3); conditions: visual assessment after ca. 3 weeks vs untreated controls
Excerpt: as §2

Setaria viridis (SETVI) [21] = assay: Herbicidal pre-emergence action, 1280 g/ha (Table A8); conditions: visual grading after ca. 3 weeks vs untreated controls
Excerpt: as §7, with “A1” for “C1”, “A11” for “C6”, “and” for “using”, “1280” for “320”

Veronica persica (VERPE) [22] = assay: Herbicidal post-emergence action, 320 g/ha, VERPE; conditions: visual grading after ca. 3 weeks
Excerpt: as §2, with “plants).” for “plants). Tables B1 to B11 below, show the effects of selected compounds of the general formula (I) according to Table 1 on various harmful plants using an application rate corresponding to 1280 g/ha obtained by the experimental procedure mentioned above.”
as §5

[23] = system: Matricaria inodora (MATIN); assay: Herbicidal post-emergence action, 320 g/ha, MATIN; conditions: visual grading after ca. 3 weeks
Excerpt: as §2, with “plants).” for “plants). Tables B1 to B11 below, show the effects of selected compounds of the general formula (I) according to Table 1 on various harmful plants using an application rate corresponding to 1280 g/ha obtained by the experimental procedure mentioned above.”
as §5

Poa annua (POAAN) = assay: Herbicidal pre-emergence action, 1280 g/ha (Table A7); conditions: visual grading after ca. 3 weeks vs untreated controls
Excerpt: as §7, with “A1” for “C1”, “A11” for “C6”, “and” for “using”, “1280” for “320”

Stellaria media (STEME) [24] = assay: Herbicidal pre-emergence action, 320 g/ha, STEME; conditions: visual grading after ca. 3 weeks
In short: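 Weed seeds sown in sandy loam pots; WP or EC formulations applied pre-emergence to the covering soil surface at 320 g/ha with 0.5% additive in 600 L water/ha. Greenhouse growth; visual damage scored after ca. 3 weeks versus untreated controls (100% = plants died, 0% = as control).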

Row | SMILES | herbicidal effect MATIN [1] | herbicidal effect SETVI (Setaria viridis (SETVI) [2]) | herbicidal effect ABUTH [3] | herbicidal effect MATIN [4] | herbicidal effect AMARE [5] | herbicidal effect ABUTH [6] | herbicidal effect LOLRI (Lolium rigidum (LOLRI) [7]) | herbicidal effect STEME (Stellaria media (STEME) [8]) | herbicidal effect KCHSC (Kochia scoparia (KCHSC) [9]) | herbicidal effect AMARE [11] | herbicidal effect STEME (Stellaria media (STEME) [12]) | herbicidal effect VERPE (Veronica persica (VERPE) [13]) | herbicidal effect LOLRI (Lolium rigidum (LOLRI) [14]) | herbicidal effect KCHSC (Kochia scoparia (KCHSC) [15]) | herbicidal effect STEME (Stellaria media (STEME) [16]) | herbicidal effect AMARE [17] | herbicidal effect LOLRI (Lolium rigidum (LOLRI) [18]) | further results
1 | CCOC(=O)Oc1c(C)nn(C)c(=O)c1Oc1ccc(Cl)cc1C1CC1 [Example I-036] | 100% | 90% | 90% | 90% | 90% | 90% | 90% | 90% | 90% | 100% | 100% | 90% | 90% |  |  |  |  | herbicidal effect KCHSC (Kochia scoparia (KCHSC) [10]): 90%
2 | CC(=O)Oc1c(C)nn(C)c(=O)c1Oc1ccccc1OC(F)(F)F [Example I-029] | 100% |  | 100% | 90% | 90% | 90% | 90% | 100% | 90% | 90% | 100% | 90% | 100% | 90% | 90% | 100% | 90% | herbicidal effect ABUTH [19]: 90%; herbicidal effect ECHCG [20]: 90%
3 | Cc1nn(C)c(=O)c(Oc2cc(F)c(F)cc2C2CC2)c1O [Example I-101] | 100% |  | 100% | 90% | 90% | 90% | 90% | 100% | 90% | 100% | 100% | 100% | 100% | 100% | 90% | 100% | 90% | herbicidal effect SETVI (Setaria viridis (SETVI) [21]): 90%; herbicidal effect VERPE (Veronica persica (VERPE) [22]): 90%
4 | CCOC(=O)Oc1c(C)nn(C)c(=O)c1Oc1cc(F)c(F)cc1Br [Example I-093] | 90% | 90% | 90% | 90% |  |  |  | 90% |  | 100% |  | 90% |  | 90% |  | 90% |  | herbicidal effect MATIN [23]: 90%
5 | Cc1nn(C)c(=O)c(Oc2ccccc2C(C)C)c1O [Example I-022] | 90% |  | 100% | 90% | 90% | 90% | 90% | 100% |  | 90% | 100% |  | 100% | 90% | 90% | 90% | 100% | herbicidal effect POAAN (Poa annua (POAAN)): 90%; herbicidal effect STEME (Stellaria media (STEME) [24]): 100%; herbicidal effect ECHCG [20]: 90%
6 | CCOC(=O)Oc1c(C)nn(C)c(=O)c1Oc1cc(F)ccc1Br [Example I-088] | 100% | 90% |  | 90% | 90% |  | 90% | 90% |  | 100% | 90% |  | 100% |  |  | 100% | 90% | 
7 | Cc1nn(C)c(=O)c(Oc2cc(Cl)ccc2C2CC2)c1O [Example I-071] | 100% |  | 100% |  | 90% | 100% |  | 100% |  | 100% | 90% | 90% | 100% |  | 90% |  |  | herbicidal effect SETVI (Setaria viridis (SETVI) [21]): 90%; herbicidal effect ABUTH [19]: 90%

Source: patent US20240239755A1, “SUBSTITUTED PYRIDAZINONES, SALTS OR N-OXIDES THEREOF AND THEIR USE AS HERBICIDALLY ACTIVE SUBSTANCES” (Bayer Aktiengesellschaft, priority 2021, published 2024)
